The source of these data is patent US7915268B2, “8-substituted 2-(benzimidazolyl)purine derivatives for immunosuppression” (Wyeth LLC, priority 2006, dated 2011).

Some results are limits rather than exact numbers.

One experiment deals with T1, Jak3 (Homo sapiens, UniProt P52333).
T1 construct: catalytic domain of Jak3 (508aa to 1124aa); made in house; host or cells: Sf9 insect cells (baculovirus, pFastBac 1)
T1 sequence (P52333 508-1124): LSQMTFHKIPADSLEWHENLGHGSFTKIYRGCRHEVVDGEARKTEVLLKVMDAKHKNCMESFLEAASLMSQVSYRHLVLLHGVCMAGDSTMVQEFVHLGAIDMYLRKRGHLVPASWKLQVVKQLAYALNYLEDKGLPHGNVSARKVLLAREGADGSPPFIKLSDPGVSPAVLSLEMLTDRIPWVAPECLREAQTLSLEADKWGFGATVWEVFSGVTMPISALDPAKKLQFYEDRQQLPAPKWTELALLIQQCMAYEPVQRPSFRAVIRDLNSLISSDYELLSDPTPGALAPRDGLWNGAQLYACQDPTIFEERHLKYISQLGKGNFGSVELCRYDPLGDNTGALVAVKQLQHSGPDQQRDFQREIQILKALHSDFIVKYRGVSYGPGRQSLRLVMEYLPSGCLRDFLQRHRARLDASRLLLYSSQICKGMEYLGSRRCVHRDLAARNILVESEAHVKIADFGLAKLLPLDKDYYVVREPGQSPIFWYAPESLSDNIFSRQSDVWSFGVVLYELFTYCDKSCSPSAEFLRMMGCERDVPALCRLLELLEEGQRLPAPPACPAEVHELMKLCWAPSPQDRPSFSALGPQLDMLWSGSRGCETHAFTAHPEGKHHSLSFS
Nature of the experiment: Jak3 Kinase Assay (HTRF, GST-Jak3 catalytic domain). It is filed as biochemical. The following applies: 1 μM ATP, 60-min incubation, read-out: Jak 3 (Converted). As to the method:
Human Jak3 cDNA was amplified by PCR. A fragment encoding the catalytic domain of Jak3 (508aa to 1124aa) was ligated with GST at 5′ end. This fused GST-Jak3 DNA fragment was cloned into the EcoRI site of the donor plasmid pFastBac 1 (Life Technologies #10359-016). The transformation, transposition, and transfection of insect cells (Sf9) were performed according to the manufacture's instructions. The cell lysate containing recombinant GST-Jak3 was used in the kinase assay. Anti-GST antibody (10 μg/ml, Sigma #G1417) was coated onto a 384-well plate at 4° C. overnight. Cell lysate containing GST-Jak3 (1:100 dilution) was added to the anti-GST coated plates, and GST-Jak3 was captured by immobilized anti-GST antibody. Testing compounds and substrate mix (50 mM HEPES, pH 7, 0.5 mM Na3VO4, 25 mM MgCl2, 1 mM DTT, 0.005% BSA, 1 μM ATP, and 4.5 μg/ml biotinyl poly-Glu, Ala, Tyr) were added to the plate to initiate the reaction. After a 60-min incubation, the reaction was stopped by 4 mM EDTA, and phosphorylation of biotinyl poly-Glu, Ala, Tyr was detected using 17 μg/ml Cy5-streptavidin (Amersham, #PA92005) and 2.7 μg/ml Europium-conjugated anti-phosphotyrosine antibody (PerkinElmer #AD0069) using homogeneous time-resolved fluorescence (HTRF) technology.

Another experiment concerns IFN-γ production. The experiment is described as follows: IL-2-Induced IFN-γ Production in the Mouse. The following applies: oral dose at 30 mg/kg, BALB/c mice, serum IFN-γ. In kind it is in vivo. As for the experimental part:
IL-2-Induced IFN-γ Production in the Mouse
Administration of IL-2 leads to an increase in serum IFN-γ in the mouse due to NK secretion of the cytokine (Thornton S, Kuhn K A, Finkelman F D and Hirsch R. NK cells secrete high levels of IFN-γ in response to in vivo administration of IL-2. Eur J Immunol 2001 31:3355-3360). The experiment is carried out essentially according to the protocol in Thornton et al. and the test compounds are administered in order to determine the level of inhibition attained. In summary, female BALB/c mice are fasted for 12-18 hours before a study but have free access to water at all times. Test compounds are administered by gavage one hour before intraperitoneal injection of IL-2 and capture antibody. At termination of the studies, the mice are sacrificed by carbon dioxide inhalation, terminal blood samples are collected by cardiac puncture and serum is generated. Serum is stored frozen until assayed for IFN-γ, as described by the kit manufacturer (BD Pharmingen™, San Diego, Calif.).

The next experiment deals with heart transplantation. The note with it: murine heart transplantation; cited from earlier work.
The test system of the next experiment is kidney transplantation. The note with it: primate kidney transplantation; cited from earlier work.
In the next experiment the test system is GVHD. The following applies: in vivo; cited from earlier work.
The test system of experiment [1] is spontaneous autoimmune diabetes. The following applies: NOD mouse; cited from earlier work.

For `N#Cc1ccc2ncn(-c3ncc4nc(-c5cncnc5)n([C@@H]5CCOc6c(F)cccc65)c4n3)c2c1` [Example 13, 3-(9-((R)-8-fluorochroman-4-yl)-8-(pyrimidin-5-yl)-9H-purin-2-yl)-3H-benzo[d]imidazole-5-carbonitrile], the IC50 at Jak3 was less than 100 nM. For the same molecule, the “inhibit IFN-γ production” value in the experiment on IFN-γ production came out at 76%.

For `C[C@@H]1CCN(C(=O)CC#N)C[C@@H]1N(C)c1ncnc2[nH]ccc12` [CP-690,550], the animal survival entry with heart transplantation and with kidney transplantation was “prolong animal survival” throughout. For the molecule `N#Cc1ccc2ncn(-c3ncc4nc(-c5cncnc5)n(C5CCOc6c(F)ccc(F)c65)c4n3)c2c1` (stereo not shown) [Example 6], on Jak3, the IC50 was less than 100 nM. In the experiment with IFN-γ production, the “inhibit IFN-γ production” value is listed as 93%.

For the molecule `COc1cc2ncnc(Nc3ccc(O)cc3)c2cc1OC` [WHI-P131], in the experiment with GVHD, the “severity of GVHD” value is “attenuate the severity of GVHD”. Also, in experiment [1], the “spontaneous autoimmune diabetes development” value was “prevent spontaneous autoimmune diabetes development”. As to `Fc1ccc2ncn(-c3ncc4nc(-c5ccc[nH]5)n(C5CCOCC5)c4n3)c2c1` [Example 62], the IC50 on Jak3 is less than 100 nM. Still for that read-out and setting: in the case of `COc1ccccc1-c1nc2cnc(-n3cnc4ccc(C#N)cc43)nc2n1C1CCOCC1` [Example 18] it was 100 to 1000 nM; in that of `Fc1ccc2ncn(-c3ncc4nc(-c5ccc(Cl)nc5)n(C5CCOCC5)c4n3)c2c1` [Example 47], less than 100 nM. Still for that read-out and setting: in the case of `Fc1ccc2ncn(-c3ncc4nc(Cc5ccccc5)n(C5CCOCC5)c4n3)c2c1` [Example 90, 8-Benzyl-2-(6-fluoro-1H-benzo[d]imidazol-1-yl)-9-(tetrahydro-2H-pyran-4-yl)-9H-purine] it was 100 to 1000 nM. Same read-out and setting: the figure for `Cc1nc2cnc(-n3cnc4ccccc43)nc2n1Cc1ccccc1` [Example 82] is greater than 1000 nM.
